Data: BindingDB's records for doi:10.1016/j.bmcl.2017.09.009 (St. John'S University, 2017)
Values joined by “and” are separate entries in the source; they are usually repeats but may differ in a detail not shown here. Identical values can stand only once.

Legend:
[1] = Inhibition of ABCG2 in human H460/MX20 cells assessed as potentiation of mitoxantrone induced antiproliferative activity by measuring mitoxantrone IC50 at 1 uM preincubated for 2 hrs followed by mitoxantrone addition measured after 72 hrs by MTT assay (Rvb = 6.161 +/- 0.172 microM)
[2] = Inhibition of ABCG2 in human H460/MX20 cells assessed as potentiation of mitoxantrone induced antiproliferative activity by measuring mitoxantrone IC50 at 3 uM preincubated for 2 hrs followed by mitoxantrone addition measured after 72 hrs by MTT assay (Rvb = 6.161 +/- 0.172 microM)
[3] = Inhibition of ABCG2 in human H460/MX20 cells assessed as potentiation of mitoxantrone induced antiproliferative activity by measuring mitoxantrone IC50 at 10 uM preincubated for 2 hrs followed by mitoxantrone addition measured after 72 hrs by MTT assay (Rvb = 6.161 +/- 0.172 microM)
[4] = Inhibition of ABCG2 in human H460/MX20 cells assessed as potentiation of mitoxantrone induced antiproliferative activity by measuring mitoxantrone IC50 at 3 uM preincubated for 2 hrs followed by mitoxantrone addition measured after 72 hrs by MTT assay (Rvb = 6.161 +/- 0.172 microM); remark: listed apart in the source
[5] = molecular target: T1, Broad substrate specificity ATP-binding cassette transporter ABCG2 (Homo sapiens, UniProt Q9UNQ0); experiment: (§1) Inhibition of ABCG2 in human H460/MX20 cells assessed as potentiation of mitoxantrone induced antiproliferative activity by measuring mitoxantrone IC50 at 10 uM preincubated for 2 hrs followed by mitoxantrone addition measured after 72 hrs by MTT assay (Rvb = 6.161 +/- 0.172 microM)
T1 sequence (Q9UNQ0 whole entry): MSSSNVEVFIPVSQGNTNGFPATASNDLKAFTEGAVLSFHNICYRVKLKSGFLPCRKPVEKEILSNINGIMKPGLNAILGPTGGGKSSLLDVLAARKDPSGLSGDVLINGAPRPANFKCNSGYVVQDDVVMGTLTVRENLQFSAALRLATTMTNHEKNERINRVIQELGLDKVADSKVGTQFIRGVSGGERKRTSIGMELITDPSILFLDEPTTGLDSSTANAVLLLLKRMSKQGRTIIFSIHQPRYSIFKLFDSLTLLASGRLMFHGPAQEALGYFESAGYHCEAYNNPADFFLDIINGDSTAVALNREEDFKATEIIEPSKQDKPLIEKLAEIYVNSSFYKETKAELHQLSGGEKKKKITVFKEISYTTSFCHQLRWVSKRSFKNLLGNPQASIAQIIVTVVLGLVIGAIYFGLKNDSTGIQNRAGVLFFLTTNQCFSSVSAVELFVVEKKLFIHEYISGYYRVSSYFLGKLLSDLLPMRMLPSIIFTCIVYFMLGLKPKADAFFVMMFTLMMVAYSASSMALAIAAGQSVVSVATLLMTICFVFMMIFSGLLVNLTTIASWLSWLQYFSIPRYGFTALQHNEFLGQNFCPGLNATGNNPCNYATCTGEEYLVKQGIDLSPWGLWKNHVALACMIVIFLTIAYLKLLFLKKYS

[6] = molecular target: T1, Broad substrate specificity ATP-binding cassette transporter ABCG2; experiment: Inhibition of ABCG2 in human H460/MX20 cells assessed as potentiation of mitoxantrone induced antiproliferative activity by measuring mitoxantrone IC50 at 3 uM preincubated for 2 hrs followed by mitoxantrone addition measured after 72 hrs by MTT assay (Rvb = 6.161 +/- 0.172 microM)
[7] = molecular target: T1, Broad substrate specificity ATP-binding cassette transporter ABCG2; experiment: ChEBML_1696291
Description: as §1

Row | Compound | IC50 [1] [nM] | IC50 [3] [nM] | IC50 [4] | other results
1 | COc1cccc(-n2nnc(-c3ccccc3NC(=O)c3ccc([N+](=O)[O-])cc3)n2)c1 | 585 | – | – | –
2 | COc1ccc(-n2nnc(-c3ccccc3NC(=O)c3ccc([N+](=O)[O-])cc3)n2)cc1 | 587 | 378 | – | IC50 [2]: 535 nM
3 | COc1ccc(C(=O)Nc2ccccc2-c2nnn(-c3ccc(OC)cc3)n2)cc1 | 746 | 492 | 505 nM | –
4 | CCCc1ccc(NC(=O)c2ccccc2NC(=O)c2ccc(OC)cc2)cc1 | – | 1660 | – | –
5 | CCCc1ccc(NC(=O)c2ccccc2NC(=O)c2ccc([N+](=O)[O-])cc2)cc1 | 833 | – | 783 nM | IC50 [5]: 594 nM
6 | CCCc1ccc(NC(=O)c2ccccc2NC(=O)Nc2ccc(OC)cc2)cc1 | 3370 | – | – | IC50 [5]: 985 nM
7 | CCCc1ccc(NC(=O)c2ccccc2NC(=O)Nc2ccc(Br)cc2)cc1 | 2660 | – | – | IC50 [6]: 2120 nM
8 | CCCc1ccc(NC(=O)c2ccccc2NC(=O)Nc2ccccc2[N+](=O)[O-])cc1 | – | – | 2560 nM | IC50 [5]: 1120 nM
9 | CCCc1ccc(NC(=O)c2ccccc2NC(=O)Nc2ccc([N+](=O)[O-])cc2)cc1 | 622 | – | 482 nM | –
10 | COc1cccc(-n2nnc(-c3ccccc3NC(=O)Nc3ccc(NC(=O)CBr)cc3)n2)c1 | 798 | – | – | IC50 [5]: 472 nM
11 | COc1cccc(-n2nnc(-c3ccccc3NC(=O)Nc3ccc(N=C=S)cc3)n2)c1 | – | – | 667 nM | –
12 | COc1cccc(-n2nnc(-c3ccccc3NC(=O)Nc3ccc(NC(C)=O)cc3)n2)c1 | – | 325 | – | –
13 | COc1cccc(-n2nnc(-c3ccccc3NC(=O)Nc3ccccc3[N+](=O)[O-])n2)c1 | – | 882 | 978 nM | –
14 | COc1cccc(-n2nnc(-c3ccccc3NC(=O)Nc3ccc([N+](=O)[O-])cc3)n2)c1 | – | 403 | – | –
15 | COc1cccc(-n2nnc(-c3ccccc3NC(=O)c3ccc(NC(=O)CBr)cc3)n2)c1 | – | 283 | – | IC50 [6]: 446 nM
16 | COc1cccc(-n2nnc(-c3ccccc3NC(=O)c3ccc(N=[N+]=[N-])cc3)n2)c1 | 1620 | – | 1500 nM | –
17 | COc1cccc(-n2nnc(-c3ccccc3NC(=O)c3ccc(NC(C)=O)cc3)n2)c1 | 1360 | 1200 | – | IC50 [2]: 1320 nM
18 | COc1cccc(-n2nnc(-c3ccccc3NC(=O)c3ccc(N)cc3)n2)c1 | – | 299 | – | IC50 [6]: 491 nM
19 | COc1cccc(-n2nnc(-c3ccccc3NC(=O)c3ccccc3[N+](=O)[O-])n2)c1 | – | – | – | IC50 [5]: 1100 nM
20 | COc1cccc(-n2nnc(-c3ccccc3NC(=O)c3cccc([N+](=O)[O-])c3)n2)c1 | 1800 | – | – | –
21 | O=C(Nc1ccc([N+](=O)[O-])cc1)Nc1ccccc1C(=O)Nc1ccc(C(F)(F)F)cc1 | – | 452 | – | IC50 [7]: 711 nM
22 | CCCc1ccc(C(=O)Nc2ccccc2-c2nnn(-c3cccc(OC)c3)n2)cc1 | – | 131 | – | –
23 | COc1cccc(-n2nnc(-c3ccccc3NC(=O)c3ccc(N=C=S)cc3)n2)c1 | – | – | 1050 nM and 952 nM | –
24 | COc1cccc(-n2nnc(-c3ccccc3NC(=O)Nc3ccc(N)cc3)n2)c1 | 838 | 379 | – | –
25 | COc1ccc(-n2nnc(-c3ccccc3NC(=O)Nc3ccc([N+](=O)[O-])cc3)n2)cc1 | – | – | 541 nM | IC50 [5]: 331 nM
26 | CCCc1ccc(NC(=O)c2ccccc2NC(=O)Nc2cccc([N+](=O)[O-])c2)cc1 | 651 | – | – | –
27 | COc1cccc(-n2nnc(-c3ccccc3NC(=O)Nc3ccc(N=[N+]=[N-])cc3)n2)c1 | 913 | – | – | –
28 | COc1ccc2c3c([nH]c2c1)[C@H](C=C(C)C)N1C(=O)[C@@H]2CCCN2C(=O)[C@@H]1C3 [Fumitremorgin C] | 612 | – | 451 nM | –
